In article PMC10482691, “LTP induction by structural rather than enzymatic functions of CaMKII” (Nature, 2023):
Several values for one entry are separate records, joined by “and”; a condition that tells them apart may be missing. Equal values may be shown once.

Assays:
[1] = test system: CA3–CA1 Schaffer collateral pathway LTP; parameters: method as in PMID 2549638; conditions: previous studies; cited from earlier work
[2] = target: purified CaMKIIα binding to GST–GluN2B-c WT (Homo sapiens, UniProt Q9UQM7); experiment: CaMKII binding to immobilized GST–GluN2B-c in vitro; conditions: Ca2+/CaM, 4 mM ADP
Procedure: CaMKII–GluN2B binding assays were done as described[9],[13],[25]. Briefly, GST–GluN2B-c tail (GST–2BC) was immobilized on anti-GST antibody-coated microtiter plates (Thermo Scientific), blocked for 30 min with 5% BSA and then overlaid with […] CaMKII (subunit concentration) in PIPES-buffered saline (pH 7.2) containing 2 mM Ca^2+, 1 μM CaM, 1 mM Mg^2+, 0.1% BSA and 0.1% Tween-20 for 20 min at room temperature. […] After extensive washes in buffer containing 1 mM EGTA, GST–2BC and bound CaMKII were eluted for 10 min in SDS loading buffer at 95 °C. Bound CaMKII was measured via immunoblot.

[3] = test system: paCaMKII binding to GST-2BC; experiment: Blue light-induced paCaMKII pulldown to immobilized GST-2BC; conditions: Dark, 100 µM ADP
From the text: Extended Data Fig. 1 paCaMKII photoactivation-induced sLTP requires GluN2B binding. Data are presented as mean values +/− SEM. a, Representative images of GFP-paCaMKII WT and mCherry-2BC expressed in cultured hippocampal neurons before and after blue light stimulation. Time course of correlation indices of GFP-paCaMKII and mCh-2BC after photoactivation. Images were acquired in a single plane ever 10 s (n = 4 cells). Scale bar indicates 10 µm. b, Schematic of blue light-induced paCaMKII pulldown to immobilized GST-2BC. c, Binding of […] to immobilized GST-2BC was induced by blue light in the presence of either 100 ADP µM alone or without nucleotide. (n = 4 independent samples; *p < 0.05; one-way Kruskal Wallis with Dunn’s comparison test). Dark:Light+ADP p = 0.0132; Dark:Light-ADP p = 0.1860; Light+ADP:Light-ADP p = 0.9779. d, Schematic of how K42M and I205K CaMKII mutations affect enzymatic activity and the induction of GluN2B binding. e, Representative images of dissociated mouse WT and GluN2B^ΔCaMKII hippocampal cultures expressing GFP-paCaMKII WT and mCherry cell fill before and after photoactivation. Scale bar indicates 5 µm. n = 9, 9 cells; See Fig. 1f, g (right) for quantification. Source data

SMILES | effect on LTP [1] | bound CaMKIIα (immunoblot, relative) [2] | binding to immobilized GST-2BC (immunoblot) [3]
CC1CNCCN1S(=O)(=O)c1cccc2cnccc12 (stereo not drawn) [H7] | LTP inhibition | – | –
Nc1ncnc2c1ncn2[C@@H]1O[C@H](COP(=O)(O)OP(=O)(O)O)[C@@H](O)[C@H]1O [ADP] | – | 2.712 and 2.4126 and 1.817 | 54.536 and 63.536 and 53.536
